US5747235A, “Silver halide light sensitive emulsion layer having enhanced photographic sensitivity” (Eastman Kodak Company, priority 1996, dated 1998)

Experiments:
Type in all cases: physicochemical
[1] = oxidation potential E1 by cyclic voltammetry; details: Table A; 80%/20% acetonitrile/water, 0.1M lithium perchlorate, 25° C.
Method: Oxidation potentials are well known and can be found, for example, in "Encyclopedia of Electrochemistry of the Elements", Organic Section, Volumes XI-XV, A. Bard and H. Lund (Editors) Marcel Dekker Inc., NY. (1984). E1 can be measured by the technique of cyclic voltammetry. In this technique, the electron donating compound is dissolved in a solution of 80%/20% by volume acetonitrile to water containing 0.1M lithium perchlorate. Oxygen is removed from the solution by passing nitrogen gas through the solution for 10 minutes prior to measurement. A glassy carbon disk is used for the working electrode, a platinum wire is used for the counter electrode, and a saturated calomel electrode (SCE) is used for the reference electrode. Measurement is conducted at 25° C. using a potential sweep rate of 0.1 V/sec. The oxidation potential vs. SCE is taken as the peak potential of the cyclic voltammetric wave.

[2] = fragmentation rate constant kfr by laser flash photolysis; details: Table B; CH3CN/H2O (4:1)
From the text: The kinetics of the bond cleavage or fragmentation reaction can be measured by conventional laser flash photolysis. […] The specific experimental apparatus we used to measure fragmentation rate constants and radical oxidation potentials is described in detail below.
(b) Fragmentation Rate Constant Determination
These absorptions were used to determine the kinetics of the fragmentation reactions of the radical cations of the X-Y. Excitation of 9,10-dicyanoanthracene (DCA) in the presence of biphenyl and the X-Y donor, as described above, results in the formation of the DCA^.cndot.- and the X-Y^.cndot.+. By using a concentration of X-Y of ca. 10^-2 M, the X-Y^.cndot.+ can be formed within ca. 20 ns of the laser pulse. […] The monitoring wavelengths used were somewhat different for the different donors, but were mostly around 470-530 nm. […] Alternatively, when the decay rate of the X-Y^.cndot.+ was less than 10^6 s^-1, the solutions were purged with oxygen.
The experiments measuring the fragmentation rate constants were performed in acetonitrile with the addition of 20% water, so that all of the salts could be easily solubilized. Most experiments were performed at room temperature. […] When this happened, the fragmentation rate constants were measured as a function of temperature, and the rate constant at room temperature determined by extrapolation.

[3] = oxidation potential E2 of radical X by laser flash photolysis; details: Table C; by parent XY compound; < = more negative than
From the text: In this technique, the compound X-Y is oxidized by an electron transfer reaction initiated by a short laser pulse. The oxidized form of X-Y then undergoes the bond cleavage reaction to give the radical X^.cndot.. X^.cndot. is then allowed to interact with various electron acceptor compounds of known reduction potential. […] The experimental details are set forth more fully below. The oxidation potentials (E2) for radicals X^.cndot. for typical compounds useful in accordance with our invention are given in Table C. Where only limits on potentials could be determined, the following notation is used: <-0.90 V should be read as "more negative than -0.90 V" and >-0.40 V should be read as "less negative than -0.40 V".
(a) Oxidation Potential of Radical X.cndot.
The laser flash photolysis measurements were performed using a nanosecond pulsed excimer (Questek model 2620, 308 nm, ca. 20 ns, ca. 100 mJ) pumped dye laser (Lambda Physik model FL 3002). The laser dye was DPS (commercially available from Exciton Co.) in p-dioxane (410 nm, ca. 20 ns, ca. 10 mJ). The analyzing light source was a pulsed 150W xenon arc lamp (Osram XBO 150/W). The arc lamp power supply was a PRA model 302 and the pulser was a PRA model M-306. The pulser increased the light output by ca. 100 fold, for a time period of ca. 2-3 ms. The analyzing light was focussed through a small aperture (ca. 1.5 mm) in a cell holder designed to hold 1 cm^2 cuvettes. The laser and analyzing beams irradiated the cell from opposite directions and crossed at a narrow angle (ca. 15°). After leaving the cell, the analyzing light was collimated and focussed onto the slit (1 mm, 4 nm bandpass) of an ISA H-20 monochromator. The light was detected using 5 dynodes of a Hamamatsu model R446 photomultiplier. The output of the photomultiplier tube was terminated into 50 ohm, and captured using a Tektronix DSA-602 digital oscilloscope. The entire experiment is controlled from a personal computer.
The experiments were performed either in acetonitrile, or a mixture of 80% acetonitrile and 20% water. The first singlet excited state of a cyanoanthracene (A), which acted as the electron acceptor, was produced using the nanosecond laser pulse at 410 nm. […] Secondary electron transfer then occurred between B^.cndot.+ and the lower oxidation potential electron donor X-Y, to generate X-Y^.cndot.+ in high yield. For the investigations of the oxidation potentials of the radicals X^.cndot., typically the cyanoanthrancene concentration was ca. 2×10^-5 M to 10^-4 M the biphenyl concentration was ca. 0.1M. The concentration of the X-Y donor was ca. 10^-3 M. The rates of the electron transfer reactions are determined by the concentrations of the substrates. The concentrations used ensured that the A^.cndot.- and the X-Y^.cndot.+ were generated within 100 ns of the laser pulse. The radical ions could be observed directly by means of their visible absorption spectra. The kinetics of the photogenerated radical ions were monitored by observation of the changes in optical density at the appropriate wavelengths.
The reduction potential (Ered) of 9,10-dicyanoanthracene (DCA) is -0.91 V. In a typical experiment, DCA is excited and the initial photo-induced electron transfer from the biphenyl (B) to the DCA forms a DCA^.cndot.-, which is observed at its characteristic absorption maximum (λobs =705 nm), within ca. 20 ns of the laser pulse. Rapid secondary electron transfer occurs from X-Y to B^.cndot.+ to generate X-Y^.cndot.+, which fragments to give X^.cndot.. A growth in absorption is then observed at 705 nm with a time constant of ca. 1 microsecond, due to reduction of a second DCA by the X^.cndot.. The absorption signal with the microsecond growth time is equal to the size of the absorption signal formed within 20 ns.
If the oxidation potential of X^.cndot. is not sufficiently negative to reduce DCA, an estimate of its oxidation potential was obtained by using other cyanoanthracenes as acceptors. […]

Structure (SMILES)	Oxidation Potential of X--Y, E1 [1]	kfr, Rate Constants for Decarboxylation of Radical Cations [2]	Oxidation Potentials of Radicals (X*), E2 [3]
CN(C)c1ccc(CC(=O)O)cc1 [Compound 1]	0.53 V vs SCE	~ 3.0 × 10^5 s^-1	> -0.5 V
O=C(O)C(O)c1ccccc1 (centres unmarked) [Compound 49]	~ 1.2 V vs SCE	–	-0.75 V
O=C(O)C(O)c1c2ccccc2cc2ccccc12 (centres unmarked) [Compound 56]	0.65 V vs SCE	120000 s⁻¹	< -0.9 V
Cc1ccc(NC(C)C(=O)O)cc1 (centres unmarked) [Compound 54]	0.44 V vs SCE	1.4e+07 s⁻¹	< -0.9 V
O=C(O)CC(Nc1ccc(C(=O)O)cc1)C(=O)O (centres unmarked) [Compound 31]	0.61 V vs SCE	–	–
CC(C(=O)O)N(c1ccccc1)c1ccccc1 (centres unmarked) [Compound 58]	0.49 V vs SCE	–	–
Cn1cc(C(O)C(=O)O)c2ccccc21 (centres unmarked) [Compound 43]	0.61 V vs SCE	–	-0.89 V
Cc1ccc(NC(CC(=O)O)C(=O)O)cc1 (centres unmarked) [Compound 29]	0.52 V vs SCE	5.4e+06 s⁻¹	< -0.9 V
CCCCN(c1ccc(C)cc1)C(CC(=O)O)C(=O)O (centres unmarked) [Compound 40]	0.38 V vs SCE	1.3e+07 s⁻¹	–
Cn1cc(CC(=O)O)c2ccccc21 [Compound 46]	0.68 V vs SCE	–	~ -0.34 V
COc1cc(OC)c(C(O)C(=O)O)cc1OC (centres unmarked) [Compound 48]	0.70 V vs SCE	–	< -0.9 V
CC(Nc1ccc(C(N)=O)cc1)C(=O)O (centres unmarked) [Compound 27]	0.62 V vs SCE	–	–
CN(C)c1ccc(C(O)C(=O)O)cc1 (centres unmarked) [Compound 3]	–	550000 s⁻¹	–
COc1ccc(C(O)C(=O)O)cc1 (centres unmarked) [Compound 50]	~ 1.05 V vs SCE	–	< -0.9 V
CCN(CC)c1ccc(C(O)C(=O)O)cc1 (centres unmarked) [Compound 2]	0.50 V vs SCE	–	< -0.9 V
O=C(O)COc1ccccc1N(CC(=O)O)CC(=O)O [Compound 22]	0.65 V vs SCE	–	–
CC(C(=O)O)N(CC(=O)O)c1ccc(S(=O)(=O)O)cc1 (centres unmarked) [Compound 18]	0.70 V vs SCE	–	–
CC(C(=O)O)c1cn(C)c2ccccc12 (centres unmarked) [Compound 45]	0.64 V vs SCE	–	-0.56 V
Cc1ccc(N(CCC(=O)O)C[Si](C)(C)C)cc1 [Compound 42]	0.30 V vs SCE	–	~ -0.9 V
CC(C)(Nc1ccccc1)C(=O)O [Compound 59]	0.53 V vs SCE	–	–
CCCCN(c1ccccc1)C(C)C(=O)O (centres unmarked) [Compound 37]	0.43 V vs SCE	–	–
CCCCN(c1ccc(Cl)cc1)C(C)C(=O)O (centres unmarked) [Compound 39]	0.40 V vs SCE	–	–
CCCCN(c1ccc(C(=O)O)cc1)C(C)C(=O)O (centres unmarked) [Compound 38]	0.48 V vs SCE	–	–

Structure (SMILES)	Oxidation Potential of X--Y, E1 [1]	kfr, Rate Constants for Decarboxylation of Radical Cations [2]	Oxidation Potentials of Radicals (X*), E2 [3]
CCN(CC)c1ccc(C(C)(O)C(=O)O)cc1 (centres unmarked) [Compound 4]	0.49 V vs SCE	–	–
O=C(O)CC(Nc1ccccc1)C(=O)O (centres unmarked) [Compound 30]	0.60 V vs SCE	–	–
COc1ccc(C(O)C(=O)O)cc1OC (centres unmarked) [Compound 51]	0.91 V vs SCE	–	< -0.9 V
CCCCN(c1ccc(C)cc1)C(C)C(=O)O (centres unmarked) [Compound 35]	0.34 V vs SCE	–	–
COc1ccc(N(CC(=O)O)CC(=O)O)cc1OC [Compound 21]	0.36 V vs SCE	1000 s⁻¹	–
CC(C(=O)O)N(CC(=O)O)c1ccc(C=O)cc1 (centres unmarked) [Compound 17]	0.74 V vs SCE	–	–
O=C(O)COc1ccc(N(CC(=O)O)CC(=O)O)cc1 [Compound 9]	0.38 V vs SCE	–	–
CCC(C)c1ccc(N(CC(=O)O)C(C)C(=O)O)cc1 (centres unmarked) [Compound 16]	0.47 V vs SCE	–	~ -0.9 V
CCCCN(c1ccccc1)C(CC(=O)O)C(=O)O (centres unmarked) [Compound 41]	0.48 V vs SCE	–	–
CCN(CC)S(=O)(=O)c1ccc(N(CC(=O)O)C(C)C(=O)O)cc1 (centres unmarked) [Compound 19]	0.68 V vs SCE	–	–
CCOC(=O)c1ccc(NC(C)C(=O)O)cc1 (centres unmarked) [Compound 28]	0.61 V vs SCE	–	–
O=C(O)CN(CC(=O)O)c1ccc(Cl)cc1 [Compound 12]	0.58 V vs SCE	–	–
COc1ccc(NC(C)C(=O)O)cc1 (centres unmarked) [Compound 23]	0.37 V vs SCE	–	–
CCN(c1cccc(C(N)=O)c1)C(C)C(=O)O (centres unmarked) [Compound 34]	0.52 V vs SCE	–	–
Nc1nc(C(O)C(=O)O)cs1 (centres unmarked) [Compound 60]	0.80 V vs SCE	–	–
CC(C(=O)O)N(C)c1ccc(C(=O)O)cc1 (centres unmarked) [Compound 33]	0.54 V vs SCE	–	< -0.9 V
CC1CC(C)(C)N(CC(=O)O)c2ccccc21 (centres unmarked) [Compound 47]	–	> 10^7 s^-1	~ -0.9 V
CC(Nc1ccc(C(=O)O)cc1)C(=O)O (centres unmarked) [Compound 25]	0.62 V vs SCE	–	–
CC(Nc1ccccc1)C(=O)O (centres unmarked) [Compound 24]	0.52 V vs SCE	–	–
CC(Nc1cccc(C(N)=O)c1)C(=O)O (centres unmarked) [Compound 32]	0.58 V vs SCE	–	–
CN(C)c1ccc(C(C)(O)C(=O)O)cc1 (centres unmarked) [Compound 5]	0.51 V vs SCE	–	< -0.9 V
CC(Nc1ccc(Cl)cc1)C(=O)O (centres unmarked) [Compound 26]	0.51 V vs SCE	–	–
